Results from US9920010B2, “CXCR7 receptor modulators” (IDORSIA PHARMACEUTICALS LTD, priority 2013, dated 2018).
pEC50: −log10 of the molar value.

What follows are molecules tested against T1, CXCR7 (Homo sapiens, UniProt P25106) (assay: PathHunter CHO-K1 CXCR7 b-arrestin recruitment assay (CXCR7 agonistic activity)). Conditions: PathHunter CHO-K1 CXCR7 b-arrestin cell line.
T1 construct: host or cells: CHO-K1 (PathHunter CHO-K1 CXCR7 b-arrestin cell line, stably transfected)
Assay type: cell-based
Outline: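 Stable CHO-K1 line with C-terminally ProLink-tagged CXCR7 and β-arrestin 2–EA fusion; β-arrestin recruitment restores β-gal activity, read by chemiluminescence after 1 h RT detection. Cells seeded 24 h, starved in OPTIMEM 3–4 h, exposed to compounds 90 min at 37 °C in HBSS/HEPES/BSA. Geometric-mean EC50 from repeated measurements.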

T1 sequence (P25106 whole entry): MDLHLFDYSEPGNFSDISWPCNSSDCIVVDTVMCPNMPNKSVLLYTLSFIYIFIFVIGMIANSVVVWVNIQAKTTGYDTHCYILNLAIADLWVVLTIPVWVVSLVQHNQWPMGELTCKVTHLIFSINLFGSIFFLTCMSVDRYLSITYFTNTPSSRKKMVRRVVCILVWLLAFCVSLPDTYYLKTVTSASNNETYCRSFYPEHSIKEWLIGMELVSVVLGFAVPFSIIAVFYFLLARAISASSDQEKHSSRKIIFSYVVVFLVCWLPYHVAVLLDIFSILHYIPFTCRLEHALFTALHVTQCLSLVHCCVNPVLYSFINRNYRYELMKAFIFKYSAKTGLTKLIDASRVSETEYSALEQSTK
T1 sequence (P32121 whole entry partner): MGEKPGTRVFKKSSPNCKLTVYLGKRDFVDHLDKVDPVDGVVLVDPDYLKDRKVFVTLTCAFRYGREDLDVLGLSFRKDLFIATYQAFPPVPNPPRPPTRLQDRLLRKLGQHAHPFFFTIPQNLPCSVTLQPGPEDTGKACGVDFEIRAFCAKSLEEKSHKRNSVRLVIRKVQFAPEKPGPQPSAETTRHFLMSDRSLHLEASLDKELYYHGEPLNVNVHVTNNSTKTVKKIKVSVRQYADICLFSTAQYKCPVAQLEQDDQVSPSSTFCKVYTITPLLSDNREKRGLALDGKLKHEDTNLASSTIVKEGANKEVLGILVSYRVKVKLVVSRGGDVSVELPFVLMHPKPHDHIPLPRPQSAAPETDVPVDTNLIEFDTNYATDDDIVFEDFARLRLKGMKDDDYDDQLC

pEC50	Molecule
8.52	CN(CCF)CCN(Cc1ccccc1C(F)(F)F)C(=O)CNc1cccc2c1CCN(CC1CC1)C2 [Example 244, 2-(2-Cyclopropylmethyl-1,2,3,4-tetrahydro-isoquinolin-5-ylamino)-N-{2-[(2-fluoro-ethyl)-methyl-amino]-ethyl}-N-(2-trifluoromethyl-benzyl)-acetamide]
6.79	CCN1CCc2cccc(NCC(=O)N(CCN(C)C)Cc3ccc(C)cn3)c2C1 [compound 527]
7.23	CN(C)CCN(Cc1ccccc1C(F)(F)F)C(=O)CNc1cccc2c1CN(CC(F)(F)F)CC2 [Example 558, N-(2-Dimethylamino-ethyl)-2-[2-(2,2,2-trifluoro-ethyl)-1,2,3,4-tetrahydro-isoquinolin-8-ylamino]-N-(2-trifluoromethyl-benzyl)-acetamide]
7.32	CN(C)CCN(Cc1nccs1)C(=O)CNc1cccc2c1CCN(CC1CC1)C2 [Example 265, 2-(2-Cyclopropylmethyl-1,2,3,4-tetrahydro-isoquinolin-5-ylamino)-N-(2-dimethylamino-ethyl)-N-thiazol-2-ylmethyl-acetamide]
7.64	COCCN1CCc2c(CCC(=O)N(CCN(C)C)Cc3ccccc3C(F)(F)F)cccc2C1 [Example 335, N-(2-Dimethylamino-ethyl)-3-[2-(2-methoxy-ethyl)-1,2,3,4-tetrahydro-isoquinolin-5-yl]-N-(2-trifluoromethyl-benzyl)-propionamide]
7.55	CCN1CCc2cccc(NCC(=O)N(CCN(C)C)Cc3ccccc3C)c2C1 [compound 494, N-(2-Dimethylamino-ethyl)-2-(2-ethyl-1,2,3,4-tetrahydro-isoquinolin-8-ylamino)-N-(2-methyl-benzyl)-acetamide]
6.72	O=C(CNc1cccc2c1CCN(CC1CC1)C2)N(Cc1ccccc1)C1CCS(=O)(=O)C1 (racemic) [Example 70, rac-N-Benzyl-2-(2-cyclopropylmethyl-1,2,3,4-tetrahydro-isoquinolin-5-ylamino)-N-(1,1-dioxo-tetrahydro-1|6-thiophen-3-yl)-acetamide]
6.79	CCN(CCN(Cc1ccccc1C(F)(F)F)C(=O)CNc1cccc2c1CCN(CC1CC1)C2)C(=O)OC(C)(C)C [Example 232, {2-[[2-(2-Cyclopropylmethyl-1,2,3,4-tetrahydro-isoquinolin-5-ylamino)-acetyl]-(2-trifluoromethyl-benzyl)-amino]-ethyl}-ethyl-carbamic acid tert-butyl ester]
7.47	CN(C)CCN(Cc1ccccc1)C(=O)CNc1cccc2c1CN(CC1CC1)CC2 [compound 187, N-Benzyl-2-(2-cyclopropylmethyl-1,2,3,4-tetrahydro-isoquinolin-8-ylamino)-N-(2-dimethylamino-ethyl)-acetamide]
8.52	CN(C)CCN(Cc1ncccc1C(F)(F)F)C(=O)CNc1cccc2c1CCN(CC1CCC1)C2 [Example 368, 2-(2-Cyclobutylmethyl-1,2,3,4-tetrahydro-isoquinolin-5-ylamino)-N-(2-dimethylamino-ethyl)-N-(3-trifluoromethyl-pyridin-2-ylmethyl)-acetamide]
8.22	CN(C)CCN(Cc1ccccc1C(F)(F)F)C(=O)CNc1cccc2c1CCN(CCCF)C2 [Example 574, N-(2-Dimethylamino-ethyl)-2-[2-(3-fluoro-propyl)-1,2,3,4-tetrahydro-isoquinolin-5-ylamino]-N-(2-trifluoromethyl-benzyl)-acetamide]
8.05	CCN1CCc2c(cccc2NCC(=O)N(CCN(C)C)Cc2ccccc2C(F)(F)F)C1 [compound 135, N-(2-Dimethylamino-ethyl)-2-(2-ethyl-1,2,3,4-tetrahydro-isoquinolin-5-ylamino)-N-(2-trifluoromethyl-benzyl)-acetamide]
6.84	CC(C)(C)OC(=O)NCCN(Cc1ccccc1C(F)(F)F)C(=O)CNc1cccc2c1CCN(CC1CC1)C2 [Example 273, {2-[[2-(2-Cyclopropylmethyl-1,2,3,4-tetrahydro-isoquinolin-5-ylamino)-acetyl]-(2-trifluoromethyl-benzyl)-amino]-ethyl}-carbamic acid tert-butyl ester]
7.55	CCC(=O)N1CCc2c(cccc2NCC(=O)N(CCN2CCCC2)Cc2ccccc2)C1 [Example 24, N-Benzyl-2-(2-propionyl-1,2,3,4-tetrahydro-isoquinolin-5-ylamino)-N-(2-pyrrolidin-1-yl-ethyl)-acetamide]
7.27	O=C(/C=C/c1cccc2c1CCN(CC1CC1)C2)N(CCc1ccc(F)cc1)Cc1ccccc1 [compound 148]
6.97	CN(CCN(Cc1ccccc1Br)C(=O)CNc1cccc2c1CCN(CC1CC1)C2)C(=O)OC(C)(C)C [Example 235, (2-{(2-Bromo-benzyl)-[2-(2-cyclopropylmethyl-1,2,3,4-tetrahydro-isoquinolin-5-ylamino)-acetyl]-amino}-ethyl)-methyl-carbamic acid tert-butyl ester]
7.26	CCN(Cc1ccccc1Cl)C(=O)/C=C/c1cccc2c1CCN(CC1CC1)C2 [compound 139]

pEC50	Molecule
7.62	CCNC(=O)N1CCc2c(cccc2NCC(=O)N(CCNC)Cc2ccccc2C(F)(F)F)C1 [compound 403, 5-({[(2-Methylamino-ethyl)-(2-trifluoromethyl-benzyl)-carbamoyl]-methyl}-amino)-3,4-dihydro-1H-isoquinoline-2-carboxylic acid ethylamide]
7.51	2-(2-Cyclopropylmethyl-1,2,3,4-tetrahydro-isoquinolin-5-ylamino)-N-isoxazol-5-ylmethyl-N-(2-trifluoromethyl-benzyl)-acetamide [Example 250]
6.85	CC(C)CCN(Cc1ccccc1)C(=O)CNc1cccc2c1CN(C)CC2 [compound 183]
8.30	CNCCN(Cc1ncccc1C(F)(F)F)C(=O)CNc1cccc2c1CCN(CC1CC1)C2 [compound 437, 2-(2-Cyclopropylmethyl-1,2,3,4-tetrahydro-isoquinolin-5-ylamino)-N-(2-methylamino-ethyl)-N-(3-trifluoromethyl-pyridin-2-ylmethyl)-acetamide]
7.51	CC(C)CN1Cc2cccc(NCC(=O)N(CCN(C)C)Cc3ncccc3C(F)(F)F)c2CC1=O [Example 313, N-(2-Dimethylamino-ethyl)-2-(2-isobutyl-3-oxo-1,2,3,4-tetrahydro-isoquinolin-5-ylamino)-N-(3-trifluoromethyl-pyridin-2-ylmethyl)-acetamide]
8.15	COCCN1CCc2c(/C=C/C(=O)N(CCN(C)C)Cc3ncccc3C(F)(F)F)cccc2C1 [Example 318, (E)-N-(2-Dimethylamino-ethyl)-3-[2-(2-methoxy-ethyl)-1,2,3,4-tetrahydro-isoquinolin-5-yl]-N-(3-trifluoromethyl-pyridin-2-ylmethyl)-acrylamide]
7.49	CCOC(=O)N1CCc2c(cccc2NCC(=O)N(CCNC)Cc2ccccc2C(F)(F)F)C1 [compound 395, 5-({[(2-Methylamino-ethyl)-(2-trifluoromethyl-benzyl)-carbamoyl]-methyl}-amino)-3,4-dihydro-1H-isoquinoline-2-carboxylic acid ethyl ester]
9.00	CCN(CC)CCN(Cc1ccccc1C(F)(F)F)C(=O)CNc1cccc2c1CCN(CC1CC1)C2 [Example 60, 2-(2-Cyclopropylmethyl-1,2,3,4-tetrahydro-isoquinolin-5-ylamino)-N-(2-diethylamino-ethyl)-N-(2-trifluoromethyl-benzyl)-acetamide]
7.41	CCC(=O)N1CCc2c(cccc2NCC(=O)N(CCN(C)C)Cc2cccc(F)c2)C1 [Example 21, N-(2-Dimethylamino-ethyl)-N-(3-fluoro-benzyl)-2-(2-propionyl-1,2,3,4-tetrahydro-isoquinolin-5-ylamino)-acetamide]
6.66	CCN1CCc2cccc(NCC(=O)N(CCN(C)C)Cc3ccccn3)c2C1 [compound 540]
7.06	CN(C)CCN(Cc1ccccc1)C(=O)/C=C/c1cccc2c1CCN(C(=O)OC(C)(C)C)C2 [Example 93, 5-{(E)-2-[Benzyl-(2-dimethylamino-ethyl)-carbamoyl]-vinyl}-3,4-dihydro-1H-isoquinoline-2-carboxylic acid tert-butyl ester]
7.07	CN(C)CCN(Cc1ncccc1Br)C(=O)CNc1cccc2c1CN(C(=O)[C@H]1C[C@H]1F)CC2 (relative stereo) [compound 460]
6.47	CC(C)COC(=O)N1CCc2c(cccc2NCC(=O)N(CCN(C)C)Cc2ccccc2)C1 [compound 122]
7.70	O=C(CNc1cccc2c1CCN(CC1CC1)C2)N(CCNCC(F)(F)F)Cc1ccccc1C(F)(F)F [Example 434, 2-(2-Cyclopropylmethyl-1,2,3,4-tetrahydro-isoquinolin-5-ylamino)-N-[2-(2,2,2-trifluoro-ethylamino)-ethyl]-N-(2-trifluoromethyl-benzyl)-acetamide]
6.55	CCC(=O)N1CCc2c(cccc2NCC(=O)N(CCN(C)C)Cc2ccc(OC)cc2)C1 [Example 30, N-(2-Dimethylamino-ethyl)-N-(4-methoxy-benzyl)-2-(2-propionyl-1,2,3,4-tetrahydro-isoquinolin-5-ylamino)-acetamide]
6.96	CCN1CCc2cccc(NCC(=O)N(CCN3CCOCC3)Cc3ccccc3C(F)(F)F)c2C1 [compound 510]

Molecule	pEC50
CN(C)CCN(Cc1ccccc1)C(=O)CNc1cccc2c1CCN(C(=O)Oc1ccccc1)C2 [compound 130]	6.41
CN(C)CCN(Cc1ccccc1)C(=O)Cc1cccc2c1CCN(CC1CC1)C2 [Example 1, N-Benzyl-2-(2-cyclopropylmethyl-1,2,3,4-tetrahydro-isoquinolin-5-yl)-N-(2-dimethylamino-ethyl)-acetamide]	7.10
CCN1CCc2cccc(OCC(=O)N(CCN(C)C)Cc3ccccc3C(F)(F)F)c2C1 [compound 567, N-(2-Dimethylamino-ethyl)-2-(2-ethyl-1,2,3,4-tetrahydro-isoquinolin-8-yloxy)-N-(2-trifluoromethyl-benzyl)-acetamide]	8.40
